From patent US9862706B2, “Compounds” (CHIESI FARMACEUTICI S.P.A., priority 2016, dated 2018)

molecular target: T1, human neutrophil elastase (HNE) (Homo sapiens, UniProt P08246); assay: HNE enzyme assay; assay type: biochemical; conditions: human leukocyte elastase 0.00072 U/mL; substrate MeOSuc-Ala-Ala-Pro-Val-AMC 100 μM; 25° C., 30 minutes; at least two separate experiments; read-out: HNE inhibition
T1 construct: purchased Sigma E8140
T1 sequence (P08246 30-247 limits assumed): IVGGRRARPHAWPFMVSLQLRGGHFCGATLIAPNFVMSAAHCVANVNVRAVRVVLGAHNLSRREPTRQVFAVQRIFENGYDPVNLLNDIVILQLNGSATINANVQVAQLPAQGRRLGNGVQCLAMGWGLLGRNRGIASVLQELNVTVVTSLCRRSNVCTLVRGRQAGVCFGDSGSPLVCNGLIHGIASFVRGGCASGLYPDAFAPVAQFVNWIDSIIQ
Procedure: Compounds of this invention were tested for potency in a human neutrophil elastase (HNE) enzyme activity assay. HNE Enzyme Assay Assays were performed in 96-well plates in a total assay volume of 100 μL. The final concentration of elastase enzyme (human leukocyte elastase, Sigma E8140) was 0.00072 U/mL. The peptide substrate (MeOSuc-[…], Calbiochem #324740) was used at a final concentration of 100 μM. The final concentration of DMSO was 1% in the assay buffer (0.05M Tris.HCl, 0.1M NaCl, 0.1M CaCl2, 0.0005% brij-35, pH 7.5). The enzymatic reaction was started by addition of the enzyme and incubated at 25° C. for 30 minutes. After incubation, the reaction was stopped by addition of soybean trypsin inhibitor (Sigma T9003) at a final concentration of 50 μg/well. Fluorescence was measured using a Molecular Devices fluorescence plate reader using 380 nm excitation and 460 nm emission wavelengths. A dose response to each compound was performed and the effect of compound in each experiment was expressed as a percentage inhibition of the control enzyme fluorescence. Dose response curves were plotted and compound potency (IC50) was determined. Compounds were tested in at least two separate experiments.

| Compound | IC50 |
| --- | --- |
| Cc1c(-c2n(-c3ccc(C#N)cc3)cc[n+]2C)n(C(=O)NCc2ccc(S(C)(=O)=O)cc2)c(=O)n1-c1cccc(C(F)(F)F)c1 [Example 5, 1-(4-Cyanophenyl)-2-{3-(4-methanesulfonyl-benzylcarbamoyl)-5-methyl-2-oxo-1-[3-(trifluoromethyl)phenyl]-2,3-dihydro-1H-imidazol-4-yl}-3-methyl-1H-imidazol-3-ium benzene sulfonate] | 1 to 10 nM |
| Cc1c(-c2ccnn2-c2ccc(C#N)cc2CC[N+](C)(C)Cc2ccccc2)n(C(=O)NC2CCCC2)c(=O)n1-c1cccc(C(F)(F)F)c1 [Example 10, Benzyl-[2-(5-cyano-2-{5-[3-cyclopentylcarbamoyl-5-methyl-2-oxo-1-(3-trifluoromethyl-phenyl)-2,3-dihydro-1H-imidazol-4-yl]-pyrazol-1-yl}-phenyl)-ethyl]-dimethyl-ammonium bromide] | < 1 nM |
| Cc1c(-c2ccnn2-c2ccc(C#N)cc2CC[N+](C)(C)C)n(C(=O)NC2CCCCC2)c(=O)n1-c1cccc(C(F)(F)F)c1 [Example 11, [2-(5-Cyano-2-{5-[3-cyclohexylcarbamoyl-5-methyl-2-oxo-1-(3-trifluoromethyl-phenyl)-2,3-dihydro-1H-imidazol-4-yl]-pyrazol-1-yl}-phenyl)-ethyl]-trimethyl-ammonium benzene sulphonate] | < 1 nM |
| Cc1c(-c2ccnn2-c2ccc(C#N)cc2CC[N+](C)(C)C)n(C(=O)NC2CC2)c(=O)n1-c1cccc(C(F)(F)F)c1 [Example 12, [2-(5-Cyano-2-{5-[3-cyclopropylcarbamoyl-5-methyl-2-oxo-1-(3-trifluoromethyl-phenyl)-2,3-dihydro-1H-imidazol-4-yl]-pyrazol-1-yl}-phenyl)-ethyl]-trimethyl-ammonium benzene sulphonate] | < 1 nM |
| CCNC(=O)n1c(-c2ccnn2-c2ccc(C#N)cc2CC[N+](C)(C)C)c(C)n(-c2cccc(C(F)(F)F)c2)c1=O [Example 13, [2-(5-Cyano-2-{5-[3-ethylcarbamoyl-5-methyl-2-oxo-1-(3-trifluoromethyl-phenyl)-2,3-dihydro-1H-imidazol-4-yl]-pyrazol-1-yl}-phenyl)-ethyl]-trimethyl-ammonium benzene sulphonate] | < 1 nM |
| Cc1c(-c2ccnn2-c2ccc(C#N)cc2CC[N+](C)(C)C)n(C(=O)NC(C)C)c(=O)n1-c1cccc(C(F)(F)F)c1 [Example 14, [2-(5-Cyano-2-{5-[3-isopropylcarbamoyl-5-methyl-2-oxo-1-(3-trifluoromethyl-phenyl)-2,3-dihydro-1H-imidazol-4-yl]-pyrazol-1-yl}-phenyl)-ethyl]-trimethyl-ammonium benzene sulphonate] | < 1 nM |
| Cn1c(-c2ccnn2-c2ccc(C#N)cc2CC[N+](C)(C)C)c(C(=O)NC2CCCC2)c(=O)n1-c1cccc(C(F)(F)F)c1 [Example 15, (2-{5-Cyano-2-[4′-cyclopentylcarbamoyl-2′-methyl-5′-oxo-1′-(3-trifluoromethyl-phenyl)-2′,5′-dihydro-1′H-[3,3′]bipyrazolyl-2-yl]-phenyl}-ethyl)-trimethyl-ammonium benzene sulfonate] | < 1 nM |
| Cn1c(-c2ccnn2-c2ccc(C#N)cc2CC[N+](C)(C)Cc2ccccc2)c(C(=O)NC2CCCC2)c(=O)n1-c1cccc(C(F)(F)F)c1 [Example 16, Benzyl-(2-{5-cyano-2-[4′-cyclopentylcarbamoyl-2′-methyl-5′-oxo-1′-(3-trifluoromethyl-phenyl)-2′,5′-dihydro-1′H-[3,3′]bipyrazolyl-2-yl]-phenyl}-ethyl)-dimethyl-ammonium bromide] | < 1 nM |
| Cn1c(-c2ccnn2-c2ccc(C#N)cc2CC[N+](C)(C)C)c(C(=O)NC2CCCCC2)c(=O)n1-c1cccc(C(F)(F)F)c1 [Example 17, (2-{5-Cyano-2-[4′-cyclohexylcarbamoyl-2′-methyl-5′-oxo-1′-(3-trifluoromethyl-phenyl)-2′,5′-dihydro-1′H-[3,3′]bipyrazolyl-2-yl]-phenyl}-ethyl)-trimethyl-ammonium benzene sulfonate] | < 1 nM |

Next, values leading:

| IC50 | Compound |
| --- | --- |
| < 1 nM | Cc1c(-c2n(-c3ccc(C#N)cc3)cc[n+]2C)n(C(=O)NC2CCCC2)c(=O)n1-c1cccc(C(F)(F)F)c1 [Example 1, 1-(4-Cyanophenyl)-2-{3-(cyclopentylcarbamoyl)-5-methyl-2-oxo-1-[3-(trifluoromethyl)phenyl]-2,3-dihydro-1H-imidazol-4-yl}-3-methyl-1H-imidazol-3-ium benzene sulfonate] |
| < 1 nM | Cc1c(-c2n(-c3ccc(C#N)cc3)cc[n+]2Cc2ccccc2)n(C(=O)NC2CCCC2)c(=O)n1-c1cccc(C(F)(F)F)c1 [Example 2, 1-(4-Cyanophenyl)-2-{3-(cyclopentylcarbamoyl)-5-methyl-2-oxo-1-[3-(trifluoromethyl)phenyl]-2,3-dihydro-1H-imidazol-4-yl}-3-benzyl-1H-imidazol-3-ium bromide] |
| < 1 nM | Cc1c(-c2n(-c3ccc(C#N)cc3)cc[n+]2C)n(C(=O)NC2CCC2)c(=O)n1-c1cccc(C(F)(F)F)c1 [Example 3, 1-(4-Cyanophenyl)-2-{3-(cyclobutylcarbamoyl)-5-methyl-2-oxo-1-[3-(trifluoromethyl)phenyl]-2,3-dihydro-1H-imidazol-4-yl}-3-methyl-1H-imidazol-3-ium benzene sulfonate] |
| < 1 nM | Cc1c(-c2n(-c3ccc(C#N)cc3)cc[n+]2C)n(C(=O)NC2CCN(C(=O)C(F)(F)F)CC2)c(=O)n1-c1cccc(C(F)(F)F)c1 [Example 4, 1-(4-Cyanophenyl)-2-{3-[1-(2,2,2-trifluoro-acetyl)-piperidin-4-ylcarbamoyl]-5-methyl-2-oxo-1-[3-(trifluoromethyl)phenyl]-2,3-dihydro-1H-imidazol-4-yl}-3-methyl-1H-imidazol-3-ium benzene sulfonate] |
| < 1 nM | Cc1c(-c2n(-c3ccc(C#N)cc3)nc[n+]2C)n(C(=O)NC2CCCC2)c(=O)n1-c1cccc(C(F)(F)F)c1 [Example 6, 1-(4-Cyano-phenyl)-5-[3-cyclopentylcarbamoyl-5-methyl-2-oxo-1-(3-trifluoromethyl-phenyl)-2,3-dihydro-1H-imidazol-4-yl]-4-methyl-1H-[1,2,4]triazol-4-ium benzene sulfonate] |
| < 1 nM | Cn1c(-c2n(-c3ccc(C#N)cc3)cc[n+]2C)c(C(=O)NC2CCCC2)c(=O)n1-c1cccc(C(F)(F)F)c1 [Example 7, 3-(4-Cyano-phenyl)-2-[4-cyclopentylcarbamoyl-2-methyl-5-oxo-1-(3-trifluoromethyl-phenyl)-2,5-dihydro-1H-pyrazol-3-yl]-1-methyl-3H-imidazol-1-ium benzenesulfonate] |
| < 1 nM | Cn1c(-c2n(-c3ccc(C#N)cc3)nc[n+]2C)c(C(=O)NC2CCCC2)c(=O)n1-c1cccc(C(F)(F)F)c1 [Example 8, 1-(4-cyano-phenyl)-5-[4-cyclopentylcarbamoyl-2-methyl-5-oxo-1-(3-trifluoromethyl-phenyl)-2,5-dihydro-1H-pyrazol-3-yl]-4-methyl-1H-[1,2,4]triazol-4-ium benzenesulfonate] |
| < 1 nM | Cc1c(-c2ccnn2-c2ccc(C#N)cc2CC[N+](C)(C)C)n(C(=O)NC2CCCC2)c(=O)n1-c1cccc(C(F)(F)F)c1 [Example 9, [2-(5-Cyano-2-{5-[3-cyclopentylcarbamoyl-5-methyl-2-oxo-1-(3-trifluoromethyl-phenyl)-2,3-dihydro-1H-imidazol-4-yl]-pyrazol-1-yl}-phenyl)-ethyl]-trimethyl-ammonium benzene sulfonate] |
